We go through four compounds from patent publication US9670482B2, “Multispecific peptides” (BICYCLE THERAPEUTICS LIMITED, priority 2009, dated 2017).

Residues, ends and D or L forms follow the SMILES beside them. No end group written: not given here.

Assay [1] addresses bovine serum albumin (BSA) (Bos taurus, UniProt P02769). Put plainly: Fluorescence anisotropy titration with BSA. From the text: For determining the affinity constant (Kd) of a fluorophore to target protein, we chose fluorescence anisotropy titrations.
Excitation was specific for coumarin (328 nm), and emission at 393 nm.
To determine whether a neighbouring group (here, Gly) on Fmoc affects binding to BSA, a similar experiment was run with Fmoc-Gly-OH (Nova Biochem). The intrinsic fluorescing properties of Fmoc were used for the anisotropy experiments.
To determine whether a neighbouring hydrophobic bulky group has an enhancing or adverse effect on BSA binding, Fmoc-Phe-OH was tested as above.
The solid phase resin employed was PAL-PEG-PS from Applied Biosystems. […] All peptides were capped with an N-terminal Fmoc, and a C-terminal amide (NH2). After cleavage, peptides were lyophilised, and solubilised in 5 mL of DMF. 100 μl of this was loaded onto an analytical C18 column using a Waters HPLC, using methanol and water (both in the presence of 0.1% TFA) as solvents. […] The peptide concentration in the cuvette was 200 nM.
Excitation was at 299 nm (to minimise Trp absorption), and emission at 320 nm. Slit widths were at 5 and 12 nm, respectively.
Peptide concentrations were estimated by the absorbance at 299 nm, using the extinction coefficient of 4700/M/cm. Excitation was at 299 nm, and emission was set to 320 nm, at slit widths of 5 and 12 nm, respectively.
(In general: In fluorescence polarisation assays a small probe gives low polarisation when free and higher when bound to something large.)

The target in assay [2] is Human Serum Albumin (HSA) (Homo sapiens, UniProt P02768). Put plainly: Fluorescence anisotropy titration with HSA. The assay is classed as binding. The note with it: 200 nM fluorophore; Hill equation; Kd cannot be determined accurately.
Assay [3] has as its target T1, MDM2 (res 2-125) (Homo sapiens, UniProt Q00987).
T1 construct: made in house
Nature of the assay: Fluorescence anisotropy titration with MDM2. It counts as binding. On the procedure: Titration experiments were run on a Horiba Jobin Yvon fluorimeter equipped with the Hamilton Microlab titrator controlled by laboratory software. The λex and λem used were 295 nm and 350 nm, respectively. The slit widths for excitation and emission were 5 nm and 15 nm and the integration time 10 s was used for each measurement. The intrinsic fluorescence of tryptophan in peptides 10, 48 was used to measure their binding affinity for MDM2 (res 2-125). The experiments were performed at 23 C.° in PBS, 5 mM DTT. Usually 250 ul of MDM2 (150 uM) was titrated into 1.2 ml of peptide (1 uM). Titration data were analyzed with a standard 1:1 binding model by using the quadratic solution to the equilibrium Kd=[A][B]/[AB]. […] The fitting equation contained an extra term to account for linear drift.
Mdm2 binds the complete PEP48 peptide with good affinity. We now determined whether Mdm2 binding is still functional within the Fmoc-Trp-linker-bicyclic derivative. 250 μL of 18.8 μM Mdm2 (expressed and purified as described in Teufel et al, PNAS 2007) was titrated into 1.2 ml of 500 nM peptide. A strong binding event occurred (Kd<1 μM), however, the data could not be fitted as the Kd was too far below the concentration of peptide employed in the experiment (FIG. 9). Lower concentrations of peptide could not be used due to technical limitations. Accurate determination of dissociation constants of this peptide to Mdm2 will require a better fluorophore than Fmoc (see above), or different methodologies such as isothermal titration calorimetry (ITC).

The test system of assay [4] is HCT116 cells. Nature of the assay: Live cell imaging of peptide uptake, HCT116. The conditions noted are these: fluorescein-labelled TBMB conjugates, 10 μM. It counts as cell-based, Human. On the procedure:
Two cell lines, HeLa and HCT116, were used for these experiments. HeLa is a Human cervix epitheloid carcinoma and HCT116 is a Human colon carcinoma. Both cell types are widely available; for instance, HeLa cells are available from the UK HPA under catalogue number 93021013. HCT116 cells are available from the UK HPA under catalogue number 91091005.
Cells were seeded in Lab-Tek chambered borosilicate coverglass (Nunc). After culturing for 48 hrs (cells reached 40-60% confluency), media was removed and a fresh media supplemented with 10 μM of peptides was added to the cells. Cells were cultivated for a further 3.5 hrs or 24 hrs. At the end of the incubation time cells were washed 3×DMEM and finally resuspended in DMEM complete media supplemented with 10 mM HEPES buffer. Live cell imaging was performed on a laser scanning microscope (LSM 710, Zeiss), differential interference contrast (DIC) and fluorescent images were taken.
The cells were cultured in Dulbecco's Modified Eagle's Medium (DMEM, GIBCO) and supplemented with 10% (v/v) of heat-inactivated fetal bovine serum, 2 mM L-glutamine, 10 U/ml penicillin, and 100 ug/ml streptomycin (DMEM complete media) at 37° C. in a 5% CO2 atmosphere.

Human Serum Albumin (HSA), sequence (P02768 25-609): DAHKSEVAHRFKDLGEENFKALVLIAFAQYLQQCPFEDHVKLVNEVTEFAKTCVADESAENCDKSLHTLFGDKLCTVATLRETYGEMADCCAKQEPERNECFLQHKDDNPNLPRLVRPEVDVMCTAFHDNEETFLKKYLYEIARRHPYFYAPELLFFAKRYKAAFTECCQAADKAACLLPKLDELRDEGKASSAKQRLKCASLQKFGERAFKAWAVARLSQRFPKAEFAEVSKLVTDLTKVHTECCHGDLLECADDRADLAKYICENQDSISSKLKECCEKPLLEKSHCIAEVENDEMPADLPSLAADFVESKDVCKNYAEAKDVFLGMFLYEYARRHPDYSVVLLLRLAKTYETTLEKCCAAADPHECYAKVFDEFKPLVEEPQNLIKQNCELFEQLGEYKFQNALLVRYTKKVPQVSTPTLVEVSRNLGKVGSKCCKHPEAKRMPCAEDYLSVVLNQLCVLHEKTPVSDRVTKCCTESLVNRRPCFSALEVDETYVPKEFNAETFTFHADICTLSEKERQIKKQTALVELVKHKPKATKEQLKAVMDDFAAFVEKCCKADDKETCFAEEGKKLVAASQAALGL
bovine serum albumin (BSA), sequence (P02769 25-607): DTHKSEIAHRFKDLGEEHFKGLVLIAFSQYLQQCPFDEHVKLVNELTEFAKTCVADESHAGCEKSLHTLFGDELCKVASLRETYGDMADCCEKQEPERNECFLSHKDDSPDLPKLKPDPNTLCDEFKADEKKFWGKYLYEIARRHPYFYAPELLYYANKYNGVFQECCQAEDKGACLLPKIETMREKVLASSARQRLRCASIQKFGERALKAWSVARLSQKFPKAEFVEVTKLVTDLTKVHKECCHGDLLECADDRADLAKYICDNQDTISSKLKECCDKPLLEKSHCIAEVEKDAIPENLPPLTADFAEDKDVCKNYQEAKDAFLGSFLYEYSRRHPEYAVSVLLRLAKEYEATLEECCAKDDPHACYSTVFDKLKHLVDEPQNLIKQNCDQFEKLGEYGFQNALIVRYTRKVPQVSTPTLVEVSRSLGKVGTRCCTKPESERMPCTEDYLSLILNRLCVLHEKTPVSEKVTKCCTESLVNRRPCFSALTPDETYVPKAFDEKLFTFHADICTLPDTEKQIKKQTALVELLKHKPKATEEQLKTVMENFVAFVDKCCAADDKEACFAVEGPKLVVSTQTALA
T1 sequence (Q00987 2-125): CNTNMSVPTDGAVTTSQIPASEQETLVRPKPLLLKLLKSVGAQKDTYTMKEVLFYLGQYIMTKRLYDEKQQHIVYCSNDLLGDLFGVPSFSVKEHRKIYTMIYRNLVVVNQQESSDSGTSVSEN

One may read the Kd as the equilibrium constant for the complex coming apart. Lower therefore signals tighter binding. For `O=C(NC(Cc1ccccc1)C(=O)O)OCC1c2ccccc2-c2ccccc21` (centres unmarked) [Fmoc-Phe-OH], the dissociation constant (Kd) was roughly 100 nM in assay [1] and roughly 10 nM in assay [2].
In assay [3], `CC(C)[C@@H]1NC(=O)[C@@H](NC(=O)[C@@H](N)CO)CSCc2cc3cc(c2)CSC[C@H](NC(=O)[C@H]([C@@H](C)O)NC(=O)[C@H](Cc2c[nH]c4ccccc24)NC(=O)CNC(=O)[C@H](Cc2ccccc2)NC(=O)[C@H](CCCNC(=N)N)NC1=O)C(=O)N[C@@H](CC(=O)O)C(=O)N[C@@H](CC(N)=O)C(=O)N[C@@H](CO)C(=O)N[C@@H](Cc1c[nH]c2ccccc12)C(=O)N[C@@H](Cc1c[nH]cn1)C(=O)NCC(=O)N[C@H](C(=O)N[C@@H](CCCCN)C(=O)NCC(=O)O)CSC3` [PEP48] (HELM PEPTIDE1{S.C.V.R.F.G.W.T.C.D.N.S.W.H.G.C.K.G}|CHEM1{[c1c(C[*:1])cc(C[*:3])cc1C[*:2]]}$PEPTIDE1,CHEM1,2:R3-1:R1|PEPTIDE1,CHEM1,9:R3-1:R2|PEPTIDE1,CHEM1,16:R3-1:R3$$$V2.0) displayed a Kd of 500 to 800 nM.
For “Pep48-D3: SCVRFGWTCDNSWHGCKG with C-terminal DDD (control), N-terminal fluorescein or methoxy-coumarin (SCVRFGWTCDNSWHGCKGDDD; cysteine pairing not given here; also: N-terminal fluorescein or methoxy-coumarin)”, in assay [4], the “cell penetration (fluorescent staining within the cell)” value is “not”.
For “Pep48-R3: SCVRFGWTCDNSWHGCKG with C-terminal RRR, N-terminal fluorescein or methoxy-coumarin (SCVRFGWTCDNSWHGCKGRRR; cysteine pairing not given here; also: N-terminal fluorescein or methoxy-coumarin)”, the “cell penetration (fluorescent staining within the cell)” value in assay [4] is reported as “fluorescent staining within the cell”.
